Experimental data from US12021195B2, “Asymmetric electrolyte salts and batteries incorporating such salts” (OHIO STATE INNOVATION FOUNDATION, priority 2019, dated 2024).
Read-outs that look alike come from different tables or passages of the source. Values belong to the compound of their own block, whether it stands above or below them.

Columns and labels:
[1] = Cyclic voltammetry, oxidative stability window in diglyme
Procedure: The counter electrode was lithium metal. […] The scan rate for each CV measurement was 50 mV/s. The Al dissolution resistance was measured by cyclic voltammetry of a 2-electrode Li∥Al CR2032 coin cell. The potential was swept from 2 V to 6.1 V for a total of 5 cycles. The cell consisted of Li foil and aluminum foil (1.77 cm^2) separated by a 25 μm trilayer celgard membrane (polypropylene-polyethylene-polypropylene).
Since it has been reported that increasing the salt concentration also improves the electrochemical window,^103,107 the stability window of each electrolyte at its highest concentration was examined. In a 3-electrode cell using a platinum working electrode, Li metal counter and a silver wire reference to avoid electrolyte contamination, cyclic voltammetry was used to examine the oxidative window. Multiple scans were collected to see if there was any change with repeat cycling to highly positive voltages (FIG. 5). As a comparison, the most concentrated possible LiTFSI solution (0.2 mol fraction) was also tested.

[2] = Solubility of lithium salts in diglyme; assay type: physicochemical
Excerpt: In order to probe structure-property relationships among sulfonamide salts, the ionic conductivity was investigated in diglyme solvent and compared with that of LiTFSI. Ethers such as diglyme have strong Lewis basicity, high chemical stability and can dissolve lithium salts via Li+ cation coordination by the lone pair on the oxygen atom.^105 However, the solubility of LiTFSI is relativity low and cannot access the concentrated electrolyte regime. This is in stark contrast to all of the sulfonamide salts investigated here. The solubility of the salts increase in the order LiTFSI<LiMPSA<LiFBSA≈LiFPSA≈LiDESA. To the best of the inventors' knowledge, in ether solvent, these sulfonamide salts have the highest solubility among any lithium salt (0.4× salt, molar ratio diglyme: Salt […]). The ionic conductivity of these electrolytes were investigated as a function of concentration (FIG. 4). The sulfonamide based electrolytes span a much larger concentration range of up to 0.4 mol fraction, where LiTFSI can only be increased up to 0.2 mol fraction. […] This could be due to reduced viscosity of the electrolytes with fluorinated derivatives as well as the ability of the ether oxygen within LiMPSA and LiDESA to coordinate the lithium cation even at low concentrations in a similar fashion to that of diglyme solvent. […]

[3] = Ionic conductivity measurements; assay type: physicochemical
Procedure: Ionic Conductivity Measurements A homemade conductivity cell was constructed with two polished stainless steel parallel plates (˜0.3 cm^2) separated by ˜0.2 cm in a Teflon cup. The entire cell was placed in a sealed vial to minimize electrolyte evaporation. To calibrate the cell constant, two conductivity standards (Sigma Aldrich) were used, 25 and […]. The calibrated cell constant was calculated to be 0.706 cm′±0.008 cm^−1. […] […] The electrochemical impedance spectrum was collected from 1 MHz to 0.5 Hz with an AC amplitude of 10 mV. The electrolyte resistance was taken as the impedance where the phase angle is as close to […] as possible in order to minimize any contribution from capacitance or inductance. All conductivity measurements were performed in an argon filled glove box.

[4] = Solubility of potassium salts in DME; settings: mol fraction of salt

Structure (SMILES): O=S(=O)([N-]S(=O)(=O)C(F)(F)F)C(F)(F)F.[Li+] [LiTFSI, lithium bis(trifluoromethanesulfonyl)imide, reference compound]
- potential above which rapid decomposition occurs ([1]; 0.2 mol fraction in diglyme, Pt working electrode, 50 mV/s): above 5 V
- oxidative stability window (in words) ([1]; each electrolyte at its highest concentration in diglyme (LiTFSI 0.2, LiFPSA 0.4, LiDESA 0.4, LiMPSA 0.33 mol fraction)): one of the lowest stabilities
- solubility (highest concentration reached) [2]: up to 0.2 mol fraction

- ionic conductivity compared with salts with an incorporated ether group ([3]; in diglyme): higher ionic conductivity
- oxidative stability window (in words) [1]: smallest stability window
Structure (SMILES): O=S(=O)([N-]CC(F)(F)C(F)(F)F)C(F)(F)F.[Li+] [LiFPSA]

- oxidative stability window (in words) [1]: one of the highest stabilities
- potential out to which cycles after the first show high stability [1]: 6-7 V
Structure (SMILES): COCCC[N-]S(=O)(=O)C(F)(F)F.[Li+] [LiMPSA]

- ionic conductivity ([3]; 0.6× KMPSA/DME electrolyte, 25° C.): 0.037 mS/cm
- ionic conductivity ([3]; molten salt, 45° C.): 0.003 mS/cm
- solubility (mol fraction that can be reached) [4]: 0.6 X
Structure (SMILES): COCCC[N-]S(=O)(=O)C(F)(F)F.[K+] [KMPSA]

Structure (SMILES): O=S(=O)([N-]S(=O)(=O)C(F)(F)F)C(F)(F)F.[K+] [KTFSI, potassium bis(trifluoromethanesulfonyl)imide, reference compound]
- solubility (mol fraction that can be reached) [4]: ~0.34 X
